From ChEMBL document CHEMBL1201862, “PubChem BioAssay data set” (2004)
Where “and” joins values, the source holds several entries; their conditions need not be identical. Identical values can stand only once.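 96-well plates; 48 h exposure; 5 concentrations. Endpoints by linear interpolation between flanking doses. Not reached: highest tested concentration assigned. GI50 marks 50% less growth.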 Calls of active or inactive are those of the source. Cut-off read from the data, not from the text of the source: active = GI50 up to about 1.1 µM and inactive = higher.

Experiments:
Test in all cases: NCI tumour cell line growth inhibition, 48 h
SK-MEL-5 = tested on: SK-MEL-5
SNB-19 = tested on: SNB-19
OVCAR-3 = tested on: OVCAR-3
IGROV-1 = tested on: IGROV-1
UACC-257 = tested on: UACC-257
CCRF-CEM = tested on: CCRF-CEM
SK-MEL-28 = tested on: SK-MEL-28
DU-145 = tested on: DU-145
SF-268 = tested on: SF-268
T47D = tested on: T47D
SF-295 = tested on: SF-295
HCT-15 = tested on: HCT-15
786-0 = tested on: 786-0
BT-549 = tested on: BT-549
Malme-3M = tested on: Malme-3M
SN12C = tested on: SN12C
MDA-MB-231 = tested on: MDA-MB-231
MCF7 = tested on: MCF7
HCC 2998 = tested on: HCC 2998

Row | Compound | GI50 (SK-MEL-5) | GI50 (SNB-19) | GI50 (OVCAR-3) | GI50 (IGROV-1) | GI50 (UACC-257) | GI50 (CCRF-CEM) | GI50 (SK-MEL-28) | GI50 (DU-145) | GI50 (SF-268) | GI50 (T47D) | GI50 (SF-295) | GI50 (HCT-15) [µM] | GI50 (786-0) | GI50 (BT-549) | GI50 (Malme-3M) | GI50 (SN12C) | GI50 (MDA-MB-231) | GI50 (MCF7) | GI50 (HCC 2998)
1 | N#C/C(C(=O)CCl)=C1\Nc2ccccc2O1 | 1.72 µM (inactive) | 7.98 µM (inactive) | 3.77 µM (inactive) | 1.83 µM (inactive) | 3.07 µM (inactive) | 3.29 µM (inactive) | 1.63 µM (inactive) | 10.2 µM (inactive) | 2.67 µM (inactive) | 15.6 µM (inactive) | 2.62 µM (inactive) | 2.01 | 3.76 µM (inactive) | 2.17 µM (inactive) | 7.28 µM (inactive) | 2.9 µM (inactive) | 2.89 µM (inactive) | 2.56 µM (inactive) | 
2 | S=C1Cc2c([nH]c3ccccc23)-c2ccccc2N1 | 42 µM (inactive) | 34.4 µM (inactive) | 32.6 µM (inactive) | 65.3 µM (inactive) | 55 µM (inactive) | > 100 µM (inactive) | > 100 µM (inactive) | 41.3 µM (inactive) | 34.4 µM (inactive) | > 100 µM (inactive) | 98.6 µM (inactive) |  | 31.3 µM (inactive) |  | 69.2 µM (inactive) | 38.6 µM (inactive) | 42.9 µM (inactive) | > 100 µM (inactive) | 
3 | COC(=O)CCC1CCc2c(OC)ccc(O)c2C1=O (centres undefined) | > 100 µM (inactive) | > 100 µM (inactive) | > 100 µM (inactive) | > 100 µM (inactive) | > 100 µM (inactive) | > 100 µM (inactive) | > 100 µM (inactive) |  | > 100 µM (inactive) |  | > 100 µM (inactive) | > 100 | > 100 µM (inactive) |  | > 100 µM (inactive) | > 100 µM (inactive) |  |  | > 100 µM (inactive)
4 | COc1ccc(N[S+]([O-])c2ccccc2OC)cc1 (centres undefined) | 11.2 µM (inactive) | 36.2 µM (inactive) | 61.4 µM (inactive) | 7.87 µM (inactive) | 33.7 µM (inactive) | 26.1 µM (inactive) | 54.8 µM (inactive) | 27.5 µM (inactive) | 7.28 µM (inactive) | 4.37 µM (inactive) | 31.7 µM (inactive) | 5.16 | 43.3 µM (inactive) |  | 19.6 µM (inactive) | > 100 µM (inactive) | 15 µM (inactive) | 20.2 µM (inactive) | > 10 µM (inactive)
5 | NC(=O)/N=C1\NCCC(=O)N1CCc1c[nH]c2ccccc12 | 18.7 µM (inactive) | 21.4 µM (inactive) | 16 µM (inactive) | 21.2 µM (inactive) | 18.5 µM (inactive) | 14.4 µM (inactive) | 20.9 µM (inactive) | 21 µM (inactive) | 13.8 µM (inactive) | 27.5 µM (inactive) | 41.2 µM (inactive) | 20 | 24 µM (inactive) |  | 18.4 µM (inactive) | 21.9 µM (inactive) | 8.09 µM (inactive) |  | 19.4 µM (inactive)
6 | C1=N\CCOCC/N=C/c2ccccc2OCc2cccc(n2)COc2ccccc2/1 |  | 9.51 µM (inactive) | 3.51 µM (inactive) | 6.3 µM (inactive) | 8.11 µM (inactive) | 4.76 µM (inactive) | 8.13 µM (inactive) | 6.61 µM (inactive) | 9.4 µM (inactive) |  | 4.02 µM (inactive) | 6.46 | 10 µM (inactive) | 6.76 µM (inactive) | 4.53 µM (inactive) | 5.96 µM (inactive) | 8.93 µM (inactive) | 4.32 µM (inactive) | 
7 | C=CCCC1CCCCC/C1=N\N(C)C (centres undefined) | > 100 µM (inactive) | > 100 µM (inactive) | > 100 µM (inactive) | > 100 µM (inactive) | > 100 µM (inactive) | > 100 µM (inactive) | > 100 µM (inactive) | > 100 µM (inactive) | > 100 µM (inactive) | > 100 µM (inactive) | > 100 µM (inactive) | > 100 | > 100 µM (inactive) |  |  | > 100 µM (inactive) | > 100 µM (inactive) | > 100 µM (inactive) | 
8 | O=P(O)(CN1CCN(CP(=O)(O)c2ccccc2)CCN(CP(=O)(O)c2ccccc2)CC1)c1ccccc1 | 69.3 µM (inactive) | > 100 µM (inactive) | 56.6 µM (inactive) | > 100 µM (inactive) |  | > 100 µM (inactive) | > 100 µM (inactive) | > 100 µM (inactive) | > 100 µM (inactive) | > 100 µM (inactive) | > 100 µM (inactive) |  | 78 µM (inactive) | > 100 µM (inactive) | 56.2 µM (inactive) |  |  | 28.1 µM (inactive) | 78.2 µM (inactive)
9 | CCOP(=O)(OCC)C(C)(CC)NC(=O)C(C(F)(F)F)C(F)(F)F (centres undefined) | > 100 µM (inactive) | > 100 µM (inactive) | > 100 µM (inactive) | > 100 µM (inactive) | > 100 µM (inactive) | 22 µM (inactive) and 21.9 µM (inactive) | > 100 µM (inactive) | > 100 µM (inactive) | > 100 µM (inactive) |  | > 100 µM (inactive) | > 100 | 40.4 µM (inactive) and 61.5 µM (inactive) |  | > 100 µM (inactive) | > 100 µM (inactive) |  | > 31.6 µM (inactive) and 29.7 µM (inactive) | > 100 µM (inactive)
10 | COc1ccc(/C=N/Nc2nc3ccccc3c(=O)n2-c2ccccc2)c(OCc2ccccc2)c1 | > 100 µM (inactive) | > 100 µM (inactive) | > 100 µM (inactive) | > 100 µM (inactive) | > 100 µM (inactive) | > 100 µM (inactive) | > 100 µM (inactive) | > 100 µM (inactive) | > 100 µM (inactive) | > 100 µM (inactive) | > 100 µM (inactive) | > 100 | > 100 µM (inactive) |  | > 100 µM (inactive) | > 100 µM (inactive) | 88.7 µM (inactive) | 0.226 µM (active) | > 100 µM (inactive)
11 | CC1=COC(C)(C=C(C#N)C#N)CC1 (centres undefined) | 58.1 µM (inactive) | > 100 µM (inactive) |  | 88.3 µM (inactive) | 57.3 µM (inactive) | 35.3 µM (inactive) | 71 µM (inactive) | > 100 µM (inactive) | > 100 µM (inactive) | 98.4 µM (inactive) | > 100 µM (inactive) | > 10 | > 100 µM (inactive) |  | > 100 µM (inactive) | 49.9 µM (inactive) | 67.5 µM (inactive) | 36.6 µM (inactive) | > 100 µM (inactive)
12 | Cc1cccc(C2SCc3nc4ccccc4n32)c1 (centres undefined) | 14.3 µM (inactive) |  | 17.8 µM (inactive) | 24.5 µM (inactive) |  | 31.8 µM (inactive) | 26.1 µM (inactive) |  | 36.7 µM (inactive) |  | 30.8 µM (inactive) | 18.6 | 25.1 µM (inactive) |  | 14.7 µM (inactive) | 19.5 µM (inactive) |  |  | 
13 | CCOC(=O)/C(C#N)=N\Nc1ccc(-n2c(C)nc3ccccc3c2=O)cc1 | 16.5 µM (inactive) | > 100 µM (inactive) | 32.7 µM (inactive) | 51.2 µM (inactive) | 61.4 µM (inactive) | > 100 µM (inactive) | 33.2 µM (inactive) | 77.6 µM (inactive) | > 100 µM (inactive) | 34.8 µM (inactive) | 56.9 µM (inactive) | 62.1 | > 100 µM (inactive) | 73.6 µM (inactive) |  | > 100 µM (inactive) | > 100 µM (inactive) | 84.3 µM (inactive) | 
14 | CCn1c(=O)c2c(=O)[nH][nH]c2c2ccccc21 | > 100 µM (inactive) | > 100 µM (inactive) | > 100 µM (inactive) | > 100 µM (inactive) | > 100 µM (inactive) | > 100 µM (inactive) | > 100 µM (inactive) | > 100 µM (inactive) |  |  | > 100 µM (inactive) | > 100 | > 100 µM (inactive) | > 100 µM (inactive) | > 100 µM (inactive) | > 100 µM (inactive) | > 100 µM (inactive) | > 100 µM (inactive) | > 100 µM (inactive)
15 | C=C1CC[C@@H](C)[C@](C)(CCc2ccoc2)C/C=C\C=C/1C(=O)O | 39.6 µM (inactive) | > 100 µM (inactive) | 19.3 µM (inactive) | 51.4 µM (inactive) | 53 µM (inactive) | 28.4 µM (inactive) | 21.9 µM (inactive) |  |  |  | 38.8 µM (inactive) | 35.2 | 46.6 µM (inactive) | 19.5 µM (inactive) | 33.4 µM (inactive) | 50.5 µM (inactive) | 59.2 µM (inactive) | 33.3 µM (inactive) | 
16 | Cc1nc(Cl)nc(Cl)c1C | > 100 µM (inactive) | > 100 µM (inactive) | > 100 µM (inactive) | > 100 µM (inactive) | > 100 µM (inactive) | > 100 µM (inactive) | > 100 µM (inactive) |  | > 100 µM (inactive) |  | > 100 µM (inactive) | > 100 | > 100 µM (inactive) | 75.7 µM (inactive) | > 100 µM (inactive) | > 100 µM (inactive) |  | > 100 µM (inactive) | > 100 µM (inactive)
17 | C[C@@]1(Br)C[C@@](C)(Cl)[C@@H](Br)CC1/C=C/Cl (some centres undefined) | 13.6 µM (inactive) | 18.6 µM (inactive) | 15.1 µM (inactive) | 8.15 µM (inactive) | 17.9 µM (inactive) | 11.1 µM (inactive) | 21.9 µM (inactive) |  | 11.1 µM (inactive) |  | 14.4 µM (inactive) | 27 | 16.6 µM (inactive) | 19.1 µM (inactive) | < 0.01 µM (active) | 15 µM (inactive) | 20.1 µM (inactive) | 16.6 µM (inactive) | 31.6 µM (inactive)
